According to ChEMBL document CHEMBL2331223, “Synthesis of 2-aminomethyl-4-phenyl-1-azabicyclo[2.2.1]heptanes via LiAlH₄-induced reductive cyclization of 2-(4-chloro-2-cyano-2-phenylbutyl)aziridines and evaluation of their antimalarial activity” (Bioorg Med Chem Lett, 2013):

Columns and labels:
Plasmodium falciparum [1] = test: Resistant index, ratio of IC50 for chloroquine-resistant Plasmodium falciparum Dd2 to IC50 for chloroquine-sensitive Plasmodium falciparum D10; type: functional
CHO = test: Cytotoxicity against CHO cells by MTT assay; type: cell-based; conditions: Cricetulus griseus
Plasmodium falciparum [2] = test: Antimalarial activity against chloroquine-resistant Plasmodium falciparum Dd2; type: functional, organism-based
Plasmodium falciparum [3] = test: Antimalarial activity against chloroquine-sensitive Plasmodium falciparum D10; type: functional, organism-based
[4] = Selectivity index, ratio of IC50 for CHO cells to IC50 for chloroquine-sensitive Plasmodium falciparum D10; type: toxicity, cell-based; conditions: hamster, read-out: Ratio IC50

Row | Structure (SMILES) | Ratio IC50 (Plasmodium falciparum [1]) | IC50 (CHO) [µM] | IC50 (Plasmodium falciparum [2]) [µM] | IC50 (Plasmodium falciparum [3]) [µM] | selectivity ratio [4]
1 | c1ccc(CNC[C@H]2C[C@@]3(c4ccccc4)CCN2C3)cc1 (relative stereo) | 4.4 | > 300 | 78.5 | 18.4 | –
2 | Cc1ccc(CNC[C@H]2C[C@@]3(c4ccccc4)CCN2C3)cc1 (relative stereo) | 1.5 | 163 | 15.9 | 10.3 | 15.7
3 | Clc1ccc(CNC[C@H]2C[C@@]3(c4ccccc4)CCN2C3)cc1 (relative stereo) | 2 | 90.4 | 11.8 | 6.01 | 15.1
4 | c1ccc(CNC[C@@H]2C[C@@]3(c4ccccc4)CCN2C3)cc1 (relative stereo) | 9.6 | 231 | 24.2 | 2.63 | 91.2
5 | Cc1ccc(CNC[C@@H]2C[C@@]3(c4ccccc4)CCN2C3)cc1 (relative stereo) | 12.5 | 160 | 10 | 0.81 | 200
6 | Clc1ccc(CNC[C@@H]2C[C@@]3(c4ccccc4)CCN2C3)cc1 (relative stereo) | 1.7 | 71.2 | 2.4 | 1.39 | 51.1
7 | CC[C@H]1CN2CCc3cc(OC)c(OC)cc3[C@@H]2C[C@@H]1C[C@H]1NCCc2cc(OC)c(OC)cc21 [EMETINE] | – | 0.33 | – | – | –
